# Reference: patent US20170183318A1, “AMIDE COMPOUNDS, METHODS FOR PREPARATION, AND USE THEREOF AS AGENTS FOR THE TREATMENT AND PREVENTION OF DISEASES CAUSED BY RNA- AND/OR DNA-CONTAINING VIRUSES, AND CONCOMITANT DISEASES” (OBSCHESTVO S OGRANICHENNOI OTVETSTVENNOSTIYU …, priority 2014, published 2017)
# Columns and labels:
# Staphylococcus aureus = test: Murine model of staphylococcal pneumonia (bacterial growth from lung imprints); assay type: in vivo, outbred mice; conditions: reference drug, intravenously, single dose of 20 mg/kg; lung imprints; control 82.5
# Experimental: The efficiency of the compounds was evaluated in outbred mice (females) infected with Staphylococcus aureus (mouse-adapted strain). The administration of the compounds was started 5 days before infection, orally at doses of 15 and 30 mg/kg in a volume of 0.2 mL. On day 5, the mice were infected intranasally under brief ether anesthesia by administration of Staphylococcus aureus at a dose of 10^9 CFU in a volume of 0.05 mL. One hour after infection, the administration of the compounds to the mice was continued at the above-indicated doses for additional 2 days. The reference drug was ampicillin administered intravenously at a single dose of 20 mg/kg. The control was mice infected with Staphylococcus aureus intranasally and treated with PBS. The mice were sacrificed two days after, the breast was dissected, and lung imprints were made in Petri dishes with Columbia agar. After incubation for 24 hours at 30° C., the presence (or absence) of Staphylococcus aureus bacterial growth was fixed in comparison with the control. The intensity of bacterial growth was evaluated in scores and expressed in %.
# [1] = Solubility in water noted for the isolated product; assay type: physicochemical; conditions: qualitative remark on the isolated product
# [2] = tested on: Coxsackie A2 virus (strain HCXV A2); test: Antiviral activity against Coxsackie virus in vivo (mortality and life expectancy of infected mice)
# Experimental: In the study a trypsin-dependent strain HCXV A2 was used, previously adapted and causing death in mice from Coxsackie virus infection.
# The experiment was carried out in white mice weighing 6 to 7 g. The animals were infected intramuscularly with a dose of 0.1 mL/mouse. The used infectious dose causing mortality in mice was 10LD50.
# The ability of compounds to provide a therapeutic effect was determined by the mortality rate of HCXV A2 virus-infected mice in the experimental group relative to the group of untreated animals.
# The studied compounds and placebo were administered orally according to the treatment regimen. Normal saline solution was administered to mice as placebo. Intact animals served as a negative control and were hold in a separate room under the same conditions as the experimental animals.
# For the experiment, groups were formed with 14-15 animals each. Compounds were administered at a dose of 30 mg/kg of body weight. The studied compounds were administered orally once daily for 7 days (first administration was made 24 hours after infection). The animals were monitored for 15 days during which the animals were weighed and the mortality rate was registered every day.
# [3] = tested on: herpes simplex virus belonging to antigenic type 2; test: Murine model of experimental herpetic meningoencephalitis (mortality); assay type: in vivo, white outbred mice; conditions: Mus musculus, po, 336 h
# Experimental: In the study, herpes simplex virus belonging to antigenic type 2 was used. White outbred mice weighing 7-8 g were infected i/c (intracerebrally) in a volume of 0.05 ml/mouse comprising a dose of 10LD50. The infectious dose of the virus that caused 100% mortality in mice was 10LD50. Each experimental group comprised 20 mice. Intact animals served as control and were hold in a separate room under the same conditions as the experimental animals. The antiviral activity of the compounds of general formula I was studied by oral administration of the compounds to infected mice once daily at a dose of 30 mg/kg/mouse 24, 48, 72, 96, and 120 hours after infection of the animals with the virus. The mice of the control group were administered placebo (0.2 mL of physiological solution) under the same conditions. The animals were monitored for 14 days after infection by registration the mouse death in the groups.
# Each animal was subjected to once-daily observation. The observation included the assessment of general behavior and body condition of animals. The animals were handled according to the International Standards.
# The activity of the compounds was evaluated by comparing mortality rates in the groups of animals administered a preparation and placebo.
# [4] = Rat model of nasopharyngitis induced by formalin (nasal mucosa changes, cell elements in nasal lavage); assay type: in vivo; conditions: Wistar rats, 18 mg/kg for 3 days
# Experimental: Nasopharyngitis was induced by intranasal administration of formalin to each nasal passage of rats.
# The administration of formalin to the nasal passages of rats leads to the dissemination of inflammation to adjacent tissues, resulting in a clinical pattern similar to the symptoms of nasopharyngitis in a human.
# After an acclimatization period, the following groups were formed: • intact animals administered intragastrically a physiological solution in an amount of 0.2 ml, without induction of nasopharyngitis; • a control group consisted of animals administered intragastrically a physiological solution in an amount of 0.2 ml for 3 days after induction of nasopharyngitis; and • animals administered the studied compounds at a dose of 18 mg/kg for 3 days after induction of nasopharyngitis.
# Clinical observation of each animal was performed every day at least twice daily.
# The caused pathology was characterized by hyperplasia, increased number of caliciform cells, pronounced infiltration of mononuclear cells and leucocytes, and mucus hyperproduction by submucosal glands.
# After euthanasia, the inflammation pattern in the nasal passages and throat was studied in each group of animals. The nasal passages were washed with 5 mL of physiological solution and the score of cell elements were counted in 1 μL.
compound,measurement,setting,value
"CC1(C)S[C@@H]2[C@H](NC(=O)[C@H](N)c3ccccc3)C(=O)N2[C@H]1C(=O)O [Ampicillin, ampicillin, reference compound]","Bacterial growth, in %",Staphylococcus aureus,25 (sporadic colonies (up to 10))
CC(C)(CCC(=O)O)C(=O)NCCc1cnc[nH]1 [Compound 45],Solubility in water,[1],freely soluble in water
O=C(O)CCC(O)C(=O)NCCc1cnc[nH]1 (stereo not drawn) [Compound 67],inhibition in vivo at 30 mg/kg,"[2]; Mus musculus, po, 168 h, 30 mg/kg orally once daily for 7 days, vs virus control, read-out: Protective index (%)",50%
same,mortality at 30 mg/kg,"[2]; Mus musculus, po, 360 h, read-out: Total mortality, %",35.7%
same,"Average life expectancy (days), Compared with control","[2]; difference vs virus control, 30 mg/kg orally once daily for 7 days",+16.2 days
same,"Average life expectancy (days), Relative","[2]; mice infected with 10LD50 HCXV A2, 30 mg/kg orally once daily for 7 days",27.0 days
same,Solubility in water,[1],freely soluble in water
O=C(O)CCCNC(=O)CCc1cnc[nH]1 [Compound 68],mortality at 30 mg/kg,[3],30%
same,Mucous membrane of nasal passages: Without changes (number of animals),"[4]; number of animals out of n = 10, control 0 of 20",3
same,Mucous membrane of nasal passages: Discharge mucus from the nasal passages (number of animals),"[4]; number of animals out of n = 10, control 20 of 20",7
same,Solubility in water,[1],freely soluble in water
NS(=O)(=O)CCC(=O)NCCc1c[nH]cn1 [Compound 145],Solubility in water,[1],freely soluble in water
